Values after ≈ are worked out from the molar mass of the structure shown. Like-named read-outs stand apart in the source and are kept apart here.
Key:
[1] = system: STAPH. AUREUS HH 127; test: prophylactic activity, dosing preinfection; format: in vivo, mice
[2] = system: cecum fluid from a swine; test: swine in vitro model, cecum fluid incubation
Procedure: The swine in vitro model was carried by incubating 1.5 ml of cecum fluid, from a swine fed normal rations, mixed with 1.5 ml of a nutrient broth (3 mg casein hydrolysate, 30 mg maltose, 1.25 mg urea, 0.5 mg lysine, and 30 mg cellobiose) and with up to 166.67 parts per million of a selected growth promotant at 39° C., with oscillation, for about 4-5 hours. Results, percentage of control, are reported in the following table in which all abbreviations are as above and LLAC means L-lactate, ETOH means ethanol and GLU means glucose.

[3] = system: Staphylococcus aureus; test: standard microtiter assay, minimum inhibitory concentration; format: cell-based; details: for MIC: Staphylococcus aureus, read-out: minimum inhibitory concentration
Excerpt: (§1) Representative results of standard microtiter assays are reported in Tables 1, 2 and 3 which follow, as the minimum inhibitory concentration of antibiotic (μg/ml).
(§2) In Table 1, test organisms 1-13 were different strains of Staphylococcus aureus, and 14-16 were different strains of Staphylococcus epidermidis. In Table 2, test organisms 1-5 were different strains of S. aureus; 6, 8, 12 and 14 were different strains of S. epidermidis; 7 was a Staphylococcus haemolyticus; 9 and 10 were different strains of Streptococcus faecalis; 11 was a Streptococcus pyogenes; and 13 was a Staphylococcus saprophyticus. In Table 3, test organisms 1-3 were different strains of S. aureus; 4 and 6 were different strains of S. epidermidis; 5 was a S. haemolyticus and 7 and 8 were different strains of Streptococcus faecalis. Except where individual components are indicated, the CWI-785 antibiotic employed was the CWI-785 complex; in some cases, HCl salts of the CWI-785 antibiotic were employed.
(§3) The number of strains tested is shown in parentheses below each organism. The average MIC is reported in μg/ml.
(§4) In Table 5 are shown data from standard microtiter assays carried out in a presence of no serum, 50% human serum (hum.) and 50% mouse serum (mse.). The test organisms were 1: S. aureus; 2,4 and 5: different strains of S. epidermidis; 3: S. haemolyticus; 6: S. saprophyticus; 7 and 8: different strains of S. faecalis.

[4] = system: Staphylococcus epidermidis; test: as above; format: cell-based
Excerpt: as §1, §2, §4

[5] = system: Streptococcus faecalis; test: as above; format: cell-based
Excerpt: as §1, §2, §3, §4

[6] = system: Staphylococcus haemolyticus; test: as above; format: cell-based; details: Table 3 test organism 5, S. haemolyticus
Excerpt: as §1, §2, §4

CNC(C(=O)NC1C(=O)NC(CCSC)C(=O)NC2C(=O)NC3C(=O)NC(C(=O)NC(C(=O)O)c4cc(O)cc(O)c4-c4cc3ccc4O)C(OC3CC(N)C(O)C(C)O3)c3ccc(c(Cl)c3)Oc3cc2cc(c3O)Oc2ccc(cc2)C1O)c1ccc(O)cc1.Cl (centres unmarked) [HPB4 hydrochloride]
ED50 ([1]; Table 7, vs Staph. aureus HH 127 (S.C.), read-out: ED50): 1.25 mg/kg | PERCENT SURVIVAL ([1]; Table 7: 40 mg/kg, 4 hr preinfection, S.C.): 100% | survival printed in parentheses under ED 50 ([1]; Table 8, printed with ED 50 <0.156): 100% | ED50 ([1]; Table 8, vs Staph. aureus HH 127 (I.V.)): < 0.156 mg/kg | PERCENT SURVIVAL ([1]; Table 8: 40 mg/kg (I.V.), 6 hr preinfection): 100%

Virginiamycin
% PR (propionate relative to TOTAL) ([2]; 1.67 PPM): 99% OF CONTROL | ACE (acetate) ([2]; 1.67 PPM): 138% OF CONTROL | BUT (butyrate) ([2]; 1.67 PPM): 178% OF CONTROL | ETOH (ethanol) ([2]; 1.67 PPM): 309% OF CONTROL | GLU (glucose) ([2]; 1.67 PPM): 152% OF CONTROL | IBU (isobutyrate) ([2]; 1.67 PPM): 0% OF CONTROL | IVA (isovalerate) ([2]; 1.67 PPM): 251% OF CONTROL | LLAC (L-lactate) ([2]; 1.67 PPM): 17% OF CONTROL | PRO (propionate) ([2]; 1.67 PPM): 147% OF CONTROL | TOTAL (total VFA) ([2]; 1.67 PPM): 148% OF CONTROL | VAL (valerate) ([2]; 1.67 PPM): 262% OF CONTROL | % PR (propionate relative to TOTAL) ([2]; 16.67 PPM): 81% OF CONTROL | ACE (acetate) ([2]; 16.67 PPM): 58% OF CONTROL | BUT (butyrate) ([2]; 16.67 PPM): 95% OF CONTROL | ETOH (ethanol) ([2]; 16.67 PPM): 273% OF CONTROL | GLU (glucose) ([2]; 16.67 PPM): 151% OF CONTROL | IBU (isobutyrate) ([2]; 16.67 PPM): 0% OF CONTROL | IVA (isovalerate) ([2]; 16.67 PPM): 40% OF CONTROL | LLAC (L-lactate) ([2]; 16.67 PPM): 32% OF CONTROL | PRO (propionate) ([2]; 16.67 PPM): 42% OF CONTROL | TOTAL (total VFA) ([2]; 16.67 PPM): 52% OF CONTROL | VAL (valerate) ([2]; 16.67 PPM): 113% OF CONTROL | % PR (propionate relative to TOTAL) ([2]; 166.67 PPM): 59% OF CONTROL | ACE (acetate) ([2]; 166.67 PPM): 45% OF CONTROL | BUT (butyrate) ([2]; 166.67 PPM): 83% OF CONTROL | ETOH (ethanol) ([2]; 166.67 PPM): 0% OF CONTROL | GLU (glucose) ([2]; 166.67 PPM): 151% OF CONTROL | IBU (isobutyrate) ([2]; 166.67 PPM): 0% OF CONTROL | IVA (isovalerate) ([2]; 166.67 PPM): 56% OF CONTROL | LLAC (L-lactate) ([2]; 166.67 PPM): 39% OF CONTROL | PRO (propionate) ([2]; 166.67 PPM): 20% OF CONTROL | TOTAL (total VFA) ([2]; 166.67 PPM): 34% OF CONTROL | VAL (valerate) ([2]; 166.67 PPM): 84% OF CONTROL

COc1cccc(OC)c1C(=O)N[C@@H]1C(=O)N2[C@@H]1SC(C)(C)[C@@H]2C(=O)O [Methicillin]
MIC ([3]; Table 1 test organism 1, S. aureus strain): 3.1 µg/mL (≈ 8.15 µM) | MIC ([3]; Table 1 test organism 2, S. aureus strain): 12.5 µg/mL (≈ 32.9 µM) | MIC ([3]; Table 1 test organism 3, S. aureus strain): 6.3 µg/mL (≈ 16.6 µM) | MIC ([3]; Table 1 test organism 4, S. aureus strain): 12.5 µg/mL (≈ 32.9 µM) | MIC ([3]; Table 1 test organism 5, S. aureus strain): 12.5 µg/mL (≈ 32.9 µM) | MIC ([3]; Table 1 test organism 6, S. aureus strain): 12.5 µg/mL (≈ 32.9 µM) | MIC ([3]; Table 1 test organism 7, S. aureus strain): > 50 µg/mL | MIC ([3]; Table 1 test organism 8, S. aureus strain): > 50 µg/mL | MIC ([3]; Table 1 test organism 9, S. aureus strain): > 50 µg/mL | MIC ([3]; Table 1 test organism 10, S. aureus strain): > 50 µg/mL | MIC ([3]; Table 1 test organism 11, S. aureus strain): > 50 µg/mL | MIC ([3]; Table 1 test organism 12, S. aureus strain): 50 µg/mL (≈ 131 µM) | MIC ([3]; Table 1 test organism 13, S. aureus strain): > 50 µg/mL | MIC ([4]; Staphylococcus epidermidis, Table 1 test organism 14, S. epidermidis strain, read-out: minimum inhibitory concentration): 1.6 µg/mL (≈ 4.21 µM) | minimum inhibitory concentration ([4]; Table 1 test organism 15, S. epidermidis strain): 1.6 µg/mL (≈ 4.21 µM) | minimum inhibitory concentration ([4]; Table 1 test organism 16, S. epidermidis strain): 1.6 µg/mL (≈ 4.21 µM)

CN[C@@H](C(=O)NC1C(=O)NC(CCSC)C(=O)NC2C(=O)NC3C(=O)NC(C(=O)NC(C(=O)O)c4cc(O)cc(O)c4-c4cc3ccc4O)C(O)c3ccc(c(Cl)c3)Oc3cc2cc(c3O)Oc2ccc(cc2)C1O)c1ccc(O)cc1 (some centres unmarked) [CWI-785B'-aglycone]
minimum inhibitory concentration ([5]; Table 3 test organism 7, Streptococcus faecalis strain): 0.8 µg/mL (≈ 0.688 µM) | minimum inhibitory concentration ([5]; Table 3 test organism 8, Streptococcus faecalis strain): 0.8 µg/mL (≈ 0.688 µM) | minimum inhibitory concentration ([3]; Table 3 test organism 1, S. aureus strain): 3.1 µg/mL (≈ 2.67 µM) | minimum inhibitory concentration ([3]; Table 3 test organism 2, S. aureus strain): 3.1 µg/mL (≈ 2.67 µM) | minimum inhibitory concentration ([3]; Table 3 test organism 3, S. aureus strain): 3.1 µg/mL (≈ 2.67 µM) | minimum inhibitory concentration ([4]; Table 3 test organism 4, S. epidermidis strain): 3.1 µg/mL (≈ 2.67 µM) | minimum inhibitory concentration ([4]; Table 3 test organism 6, S. epidermidis strain): 6.3 µg/mL (≈ 5.42 µM) | minimum inhibitory concentration [6]: 6.3 µg/mL (≈ 5.42 µM)
